Non-standard residues stand in square brackets, D forms with d. Residues, ends and D or L forms follow the SMILES beside them. *: point of attachment. Nphe = O=C(O)CNCc1ccccc1; Bz = O=C(c1ccccc1)*
How the values were obtained:
[1] = Gelation test in solvents at room temperature; assay type: physicochemical; design: key to Gelation test result: I, insoluble; P, precipitating; S, soluble at ~20 mg/mL; G, gel at room temperature; number is minimum gelation concentration; details: for Gelation test result / minimum gelation concentration: room temperature; for Gelation result / preliminary MGC (stable gel) / concentration of slightly unstable or partial gel (UG): Table 3
Description: (§1) Gelation tests were performed by adding incremental amounts of compounds to a solvent or solvent system at room temperature and observing the results (i.e., gel formation, solubility of compounds, insolubility of compounds, or formation of a precipitate). […] The term “precipation” means that the compound dissolves upon heating and sonicating, however, it crashes out of solution when the heat is removed.
(§2) After the compounds were synthesized, they were screened for gelation properties. […] For the compounds with new chiral centers, they formed gels in aqueous environment preferentially.

[2] = Gelation test in solvents at room temperature; assay type: physicochemical; design: key: I, insoluble; P, precipitating; S, soluble at ~20 mg/mL; G, gel at room temperature; number is minimum gelation concentration; details: Table 3
Description: as §1, §2

[3] = Gelation test in solvents at room temperature; assay type: physicochemical; design: key: S, soluble (starting test at 20 mg/mL); I, insoluble; P, precipitate; G, stable gel, the numbers after G are preliminary MGCs in mg/mL; UG, slightly unstable gels or partial gels, concentrations are 20 mg/mL unless otherwise noted; details: Table 3
Description: as §1, §2

Row | SMILES | Gelation result ([2]; Hexane) | Gelation result ([3]; DMSO:H2O 1:1) | Gelation result ([3]; DMSO:H2O 1:2) | Gelation result ([3]; EtOH:H2O (1:2)) | Gelation result ([3]; Water) | preliminary MGC (stable gel) ([1]; DMSO:H2O 1:1) [mg/mL] | preliminary MGC (stable gel) ([1]; DMSO:H2O 1:2) [mg/mL] | Gelation result ([1]; EtOH) | other results
1 | COC1OC2COC(c3ccccc3)OC2C(O)C1N(CC(=O)NC1CCCCC1)C(=O)c1ccc(Br)cc1 (stereo not drawn) [Compound 25, 4-Bromo-N-(2-(cyclohexylamino)-2-oxoethyl)-N-(8-hydroxy-6-methoxy-2-phenyl-hexahydropyrano[3,2-d][1,3]dioxin-7-yl)benzamide] | – | – | – | – | – | – | – | – | melting point: 291 to 293 °C; Gelation test result ([1]; DMSO:H2O (1:1)): G; minimum gelation concentration ([1]; DMSO:H2O (1:1)): 20.0 mg/mL; Gelation test result ([1]; DMSO:H2O (1:2)): P; Gelation test result ([1]; EtOH): G; minimum gelation concentration ([1]; EtOH): 20.0 mg/mL; Gelation test result ([1]; EtOH:H2O (1:1)): G; minimum gelation concentration ([1]; EtOH:H2O (1:1)): 20.0 mg/mL; Gelation test result ([1]; EtOH:H2O (1:2)): G; minimum gelation concentration ([1]; EtOH:H2O (1:2)): 20.0 mg/mL; Gelation test result ([1]; H2O): I; Gelation test result ([1]; Hexane): P
2 | C[C@H](c1ccccc1)N(CC(=O)NC1CCCCC1)C(=O)c1ccc(Br)cc1 [Compound 19, (R)-4-bromo-N-(2-(cyclohexylamino)-2-oxoethyl)-N-(1-phenylethyl)benzamide] | – | – | – | – | – | – | – | – | melting point: 140 to 142 °C; Gelation test result ([1]; DMSO:H2O (1:1)): G; minimum gelation concentration ([1]; DMSO:H2O (1:1)): 20.0 mg/mL; Gelation test result ([1]; DMSO:H2O (1:2)): P; Gelation test result ([1]; EtOH): S (S, soluble at ~20 mg/mL); Gelation test result ([1]; EtOH:H2O (1:1)): P; Gelation test result ([1]; EtOH:H2O (1:2)): P; Gelation test result ([1]; H2O): P; Gelation test result ([1]; Hexane): S^(c) (S, soluble at ~20 mg/mL)
3 | CC1(C)OCC(CN(CC(=O)NC2CCCCC2)C(=O)c2ccc(Br)cc2)O1 (stereo not drawn) [Compound 27] | – | G | G | P | – | 20.0 | 20.0 | – | Gelation result ([1]; Hexane): S (S, soluble (starting test at 20 mg/mL)); Gelation result ([1]; Water): S (S, soluble (starting test at 20 mg/mL)); Gelation result ([3]; EtOH): P
4 | CCOC(=O)CNC(=O)CN(C(=O)c1ccc(Br)cc1)C1C(OCC)OC2COC(c3ccccc3)OC2C1O (stereo not drawn) [Compound 32] | I | G | UG | G | P | 20.0 | – | S (S, soluble (starting test at 20 mg/mL)) | concentration of slightly unstable or partial gel (UG) ([1]; DMSO:H2O 1:2): 20000 µg/mL; preliminary MGC (stable gel) ([1]; EtOH:H2O (1:2)): 20.0 mg/mL
5 | CCOC(=O)CNC(=O)CN(Cc1ccccc1)C(=O)c1ccc(C(=O)N(CC(=O)NCC(=O)OCC)Cc2ccccc2)cc1 [Compound 30] | I | P | P | P | – | – | – | S (S, soluble (starting test at 20 mg/mL)) | Gelation result ([2]; Water): I
6 | CCOC(=O)CNC(=O)CN(Cc1ccccc1)C(=O)c1ccccc1 [Compound 22, Ethyl 2-(2-(N-benzylbenzamido)acetamido)acetate] (Bz-[Nphe]-Gly-OEt) | – | – | – | – | – | – | – | – | Gelation test result ([1]; DMSO:H2O (1:1)): S (S, soluble at ~20 mg/mL); Gelation test result ([1]; DMSO:H2O (1:2)): P; Gelation test result ([1]; EtOH): P; Gelation test result ([1]; EtOH:H2O (1:1)): P; Gelation test result ([1]; EtOH:H2O (1:2)): P; Gelation test result ([1]; H2O): S (S, soluble at ~20 mg/mL); Gelation test result ([1]; Hexane): S (S, soluble at ~20 mg/mL)
7 | COC1OC2COC(c3ccccc3)OC2C(O)C1N(CC(=O)NC1CCCCC1)C(C)=O (stereo not drawn) [Compound 31] | I | G | G | – | P | 10.0 | 10.0 | – | Gelation result ([1]; EtOH:H2O (1:2)): S (S, soluble (starting test at 20 mg/mL)); preliminary MGC (stable gel) ([1]; EtOH): 10.0 mg/mL; Gelation result ([3]; EtOH): G
8 | O=C(CN(Cc1ccccc1)C(=O)c1ccc(C(=O)N(CC(=O)NC2CCCCC2)Cc2ccccc2)cc1)NC1CCCCC1 [Compound 29] | I | P | G | P | UG | – | 20.0 | – | concentration of slightly unstable or partial gel (UG) ([1]; Water): 20000 µg/mL; Gelation result ([3]; EtOH): UG

Continued, in another order:

Row | Gelation result ([2]; Hexane) | Gelation result ([3]; DMSO:H2O 1:1) | Gelation result ([3]; DMSO:H2O 1:2) | Gelation result ([3]; EtOH:H2O (1:2)) | Gelation result ([3]; Water) | preliminary MGC (stable gel) ([1]; DMSO:H2O 1:1) [mg/mL] | preliminary MGC (stable gel) ([1]; DMSO:H2O 1:2) [mg/mL] | SMILES | Gelation result ([1]; EtOH) | other results
9 | I | – | – | – | – | – | – | O=C(CN(CC(O)CO)C(=O)c1ccc(Br)cc1)NC1CCCCC1 (stereo not drawn) [Compound 41] | S (S, soluble (starting test at 20 mg/mL)) | Gelation result ([1]; DMSO:H2O 1:1): S (S, soluble (starting test at 20 mg/mL)); Gelation result ([1]; DMSO:H2O 1:2): S (S, soluble (starting test at 20 mg/mL)); Gelation result ([1]; EtOH:H2O (1:2)): S (S, soluble (starting test at 20 mg/mL)); Gelation result ([1]; Water): S (S, soluble (starting test at 20 mg/mL))
10 | – | P | P | P | P | – | – | O=C(CN(C(=O)c1ccccc1)c1ccccc1)NC1CCCCC1 [Compound 39] | S (S, soluble (starting test at 20 mg/mL)) | Gelation result ([3]; Hexane): P
11 | – | G | G | P | – | 20.0 | 20.0 | COC1OC(CO)C(O)C(O)C1N(CC(=O)NC1CCCCC1)C(=O)c1ccc(Br)cc1 (stereo not drawn) [Compound 40] | S (S, soluble (starting test at 20 mg/mL)) | Gelation result ([2]; Water): I; Gelation result ([1]; Hexane): S (S, soluble (starting test at 20 mg/mL))
12 | – | – | – | P | G | – | – | COc1ccc(C(C(=O)NC2CCCCC2)N(C(C)=O)[C@H](C)c2ccccc2)cc1 (single isomer, unassigned) [Compound 38b] | – | Gelation result ([2]; DMSO:H2O 1:2): I; preliminary MGC (stable gel) ([1]; Water): 21.0 mg/mL
13 | – | – | UG | – | UG | – | – | COc1ccc(C(C(=O)NC2CCCCC2)N(C(C)=O)[C@H](C)c2ccccc2)cc1 (single isomer, unassigned) [Compound 38a] | S (S, soluble (starting test at 20 mg/mL)) | Gelation result ([2]; EtOH:H2O (1:2)): I; concentration of slightly unstable or partial gel (UG) ([1]; DMSO:H2O 1:2): 18000 µg/mL; concentration of slightly unstable or partial gel (UG) ([1]; Water): 17000 µg/mL; Gelation result ([3]; Hexane): P
14 | I | P | P | P | P | – | – | CCOC(=O)CNC(=O)CN(CCNC(=O)OC(C)(C)C)C(=O)Cc1ccc2ccccc2c1 [Compound 33] | S (S, soluble (starting test at 20 mg/mL)) | –
15 | I | UG | P | P | P | – | – | COc1ccc(CN(CC(=O)Nc2ccc(Oc3ccc(NC(=O)CN(Cc4ccc(OC)cc4)C(=O)c4ccc(Br)cc4)cc3)cc2)C(=O)c2ccc(Br)cc2)cc1 [Compound 36] | S (S, soluble (starting test at 20 mg/mL)) | concentration of slightly unstable or partial gel (UG) ([1]; DMSO:H2O 1:1): 20000 µg/mL
16 | I | UG | UG | – | P | – | – | O=C(O)CNC(=O)CN(Cc1ccccc1)C(=O)c1ccc(C(=O)N(CC(=O)NCC(=O)O)Cc2ccccc2)cc1 [Compound 43] | S (S, soluble (starting test at 20 mg/mL)) | concentration of slightly unstable or partial gel (UG) ([1]; DMSO:H2O 1:1): 20000 µg/mL; concentration of slightly unstable or partial gel (UG) ([1]; DMSO:H2O 1:2): 20000 µg/mL
17 | I | P | P | P | P | – | – | COc1ccc(CN(CC(=O)NCC(=O)O)C(=O)c2ccc(Br)cc2)cc1 [Compound 42] | S (S, soluble (starting test at 20 mg/mL)) | –
18 | I | – | P | G | UG | – | – | COc1ccc(C(C(=O)NC2CCCCC2)N(Cc2ccccc2)C(C)=O)cc1 (racemic) [Compound 37] | S (S, soluble (starting test at 20 mg/mL)) | preliminary MGC (stable gel) ([1]; EtOH:H2O (1:2)): 15.0 mg/mL; concentration of slightly unstable or partial gel (UG) ([1]; Water): 17000 µg/mL
19 | I | G | G | G | G | 20.0 | 10.0 | CCOC(=O)CNC(=O)CN(Cc1ccc(OC)cc1)C(=O)CCC(=O)NC1C(OC)OC2COC(c3ccccc3)OC2C1O (stereo not drawn) [Compound 34] | – | preliminary MGC (stable gel) ([1]; EtOH:H2O (1:2)): 20.0 mg/mL; preliminary MGC (stable gel) ([1]; EtOH): 10.0 mg/mL; preliminary MGC (stable gel) ([1]; Water): 10.0 mg/mL; gelation properties (in words) ([1]; screening of Table 3 compounds): able to gelate in water as well as almost all the tested solvents; Gelation result ([3]; EtOH): G
20 | I | G | G | G | – | 20.0 | 20.0 | COc1ccc(CN(CC(=O)NCS(=O)(=O)c2ccc(C)cc2)C(=O)c2ccc(Br)cc2)cc1 [Compound 35] | – | Gelation result ([2]; Water): I; preliminary MGC (stable gel) ([1]; EtOH:H2O (1:2)): 10.0 mg/mL; Gelation result ([3]; EtOH): P
